The subject of the data set is atherosclerosis in Apoe-/- mice. The experiment in a line: Atherosclerosis in Apoe-/- mice fed WD. In kind it is in vivo, mouse. The procedure: FIGS. 6A-6J depict that IRE1 kinase inhibition alleviates atherosclerosis. (Data are mean±SEM; Mann Whitney U test. * P≤0.05, ** P≤0.01, *** P≤0.001.) • 6A. Atherosclerosis experiment design in Apoe^−/− mice were fed with WD (12 weeks) and injected with vehicle (DMSO) or AMG-18 (30 mg/kg) once a day in the last 4 weeks of WD. • 6B. Lesion area calculated from en face aorta, stained with ORO (n=5; Scale bar=5 mm). • 6C. Total plaque area was calculated from H&E-stained aortic root sections (n=5; Scale bar=300 μm). • 6D. Foam cell area was calculated from ORO-stained aortic root sections (n=5; Scale bar=300 μm). • 6E. Necrotic area was calculated from H&E-stained aortic root sections (n=5; Scale bar=100 μm). • 6F. Atherosclerosis experiment design in Apoe^−/− mice were fed with WD (12 weeks) and injected with vehicle (DMSO) or AMG-18 (30 mg/kg) twice a day in the last 4 weeks of WD. • 6G. Lesion area calculated from en face aorta, stained with ORO (n=6; Scale bar=5 mm). • 6H. Total plaque area was calculated from H&E-stained aortic root sections (n=5; Scale bar=300 μm). • 6I. Foam cell area was calculated from ORO-stained aortic root sections (n=5; Scale bar=300 μm). • 6J. Necrotic area was calculated from H&E-stained aortic root sections (n=5; Scale bar=100 μm).
FIGS. 6K-6T depict: (Data are mean±SEM; Mann Whitney U test. * P≤0.05, ** P≤0.01, *** P≤0.001.) • 6K. The ratio of mouse weight at the beginning of the experiment over the weight at the end of the experiment in FIG. 6A (n=5). • 6L-6N. Plasma measurements for (6L) glucose (n=5) and (6M) cholesterol (n=5) from mice in FIG. 6A. (6N) Abundance of B cells, T cells and monocytes in the peripheral blood as % of total CD45+ cells from the vehicle (DMSO) or AMG-18 (30 mg/kg) once a day injected mice in FIG. 6A (n=5). • 6O. Protein lysates of liver from mice in FIG. 6A. Proteins were analyzed by western blotting using specific antibodies for pIRE1 and β-Actin (n=5). • 6P. The ratio of mouse weight at the beginning of the experiment over the weight at the end of the experiment in FIG. 6F (n=6). • 6Q-6R. Plasma measurements for (6Q) glucose (n=6) and (6R) cholesterol (n=6) from FIG. 6F. • 6S-6T. Protein lysates of (6S) thioglycolate-elicited PM and (6T) liver from mice in FIG. 6F. Proteins were analyzed by western blotting using specific antibodies for pIRE1 and β-Actin (n=6).
Mice studies and treatments: C57BL/6 (WT, Fmr1^+/+), Fmr1^−/− and Apolipoprotein E-deficient (Apoe^−/−) mice were purchased from Jackson Laboratory. IRE1 conditional knock out (Ire1α^flox/flox) mice were a kind gift from Dr. Takao Iwawaki (Kanazawa Medical University, Japan) and characterized before (Iwawaki et al, 2009). […] Fmr1 conditional knock out (Fmr1^flox/flox) mice were a kind gift from dr. David Nelson. Fmr1^flox/flox mice were inter-crossed with LysM^cre mice purchased from Jackson Lab (004781) to obtain myeloid Fmr1-deficient (myFmr1^−/−) mice. Starting at 8 weeks of age, Fmr1^−/−, Fmr1^−/−, myFmr1/or myFmr1^−/− mice were injected with 1×10^10 AAV_PCSK9 (AAV8-D377Y-mPCSK9, Vector BiolabsAAV-268246) via tail vein, then fed with normal chow or high cholesterol/high fat atherosclerotic mouse diet from Envigo (TD.88137) for 6 to 16 weeks. Apoe^−/− mice were fed with WD (12 weeks) and intraperitoneally injected with vehicle (DMSO) or AMG-18 (30 mg/kg) once or twice a day in the last 4 weeks of WD. C57BL/6 were injected with Tunicamycin (TM, 1 mg/kg) and with AMG-18 (30 mg/kg) or vehicle (DMSO) in 20% vol/vol Cremophor EL saline solution. 8 hours later peritoneal macrophages were isolated by thioglycolate elicitation for further analysis. Mice were kept under specific pathogen-free conditions with food and water ad libititum. Both female and male mice were used for experiments. […]

[1] abbreviates: 30 mg/kg once daily, last 4 weeks of 12 weeks WD.
Setting [2] is: 30 mg/kg twice daily, last 4 weeks of 12 weeks WD.

In the case of `Cc1ccc2c(NS(=O)(=O)c3ccccc3Cl)cccc2c1Oc1ncccc1-c1ccnc(N[C@H]2CCCNC2)n1` [AMG-18], under setting [1], the “aortic root lesion area” value is reported as “not different”, the “atherosclerotic lesions in en face aorta preparations” value is on record as “decrease”, the body weight result is “no significant differences” and the foam cell area entry was “significantly decreased”. Further, under setting [1], the necrotic core area entry is “significantly decreased” and the “number of circulating immune cells” value is listed as “no significant differences”. The “IRE1 autophosphorylation (target engagement)” value (30 mg/kg once daily, liver lysates) is reported as “reduced”. In addition, under setting [2], the “aortic root lesion area” value is given as “did not alter”, the “atherosclerotic lesions in en face aorta preparations” value is reported as “significant decrease”, the body weight ratio result is “decrease” and the foam cell area result was “significantly decreased”. Also, the necrotic core area result under setting [2] is given as “significantly decreased”. The “IRE1 autophosphorylation (target engagement)” value (30 mg/kg twice daily, PM and liver lysates) is on record as “reduced”.

For the origin of these results see patent US20250134889A1, “TARGETING IRE1 KINASE AND FMRP FOR PROPHYLAXIS, MANAGEMENT AND TREATMENT OF ATHEROSCLEROSIS” (CEDARS-SINAI MEDICAL CENTER, priority 2022, published 2025).
